Test results published in the supplement of paper PMC10307832.

Experiments:
Experiment in all cases: relative viability (nuclei count vs DMSO), 5 days (fraction); higher = more cells survive
[1] = compound: COc1cc(-c2nn([C@H]3CC[C@H](N4CCN(C(C)=O)CC4)CC3)c3ncnc(N)c23)ccc1NC(=O)c1cc2ccccc2n1C + CC1(C)CCC(c2ccc(Cl)cc2)=C(CN2CCN(c3ccc(C(=O)NS(=O)(=O)c4ccc(N[C@H](CCN5CCOCC5)CSc5ccccc5)c(S(=O)(=O)C(F)(F)F)c4)cc3)CC2)C1 [Navitoclax] (partner 0.5 µM)
Method in brief: (§1)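 Lung cancer cell lines were seeded in 1536-well plates and dosed by pin tool the next day, with either a single drug or a fixed anchor-drug dose combined with five library-drug doses (not always all listed) spaced in √10 steps. Five days later, one step fixed the cells and stained their nuclei (final 0.05% Triton X-100, 1% formaldehyde, 1 ug/ml Hoechst), and nuclei were counted on 4× images. Relative viability is the nuclei count in treated wells divided by the count in vehicle wells, and each value is the median of duplicate plates.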

Midostaurin + Trametinib = compound: CO[C@@H]1[C@H](N(C)C(=O)c2ccccc2)C[C@H]2O[C@]1(C)n1c3ccccc3c3c4c(c5c6ccccc6n2c5c31)C(=O)NC4 [Midostaurin] + CC(=O)Nc1cccc(-n2c(=O)n(C3CC3)c(=O)c3c(Nc4ccc(I)cc4F)n(C)c(=O)c(C)c32)c1 [Trametinib] (partner 0.02 µM)
Method in brief: as §1

Midostaurin + Pictilisib = compound: CO[C@@H]1[C@H](N(C)C(=O)c2ccccc2)C[C@H]2O[C@]1(C)n1c3ccccc3c3c4c(c5c6ccccc6n2c5c31)C(=O)NC4 [Midostaurin] + CS(=O)(=O)N1CCN(Cc2cc3nc(-c4cccc5[nH]ncc45)nc(N4CCOCC4)c3s2)CC1 [Pictilisib] (partner 1 µM)
Method in brief: as §1

Midostaurin + Decitabine = compound: CO[C@@H]1[C@H](N(C)C(=O)c2ccccc2)C[C@H]2O[C@]1(C)n1c3ccccc3c3c4c(c5c6ccccc6n2c5c31)C(=O)NC4 [Midostaurin] + Nc1ncn([C@H]2C[C@H](O)[C@@H](CO)O2)c(=O)n1 [Decitabine] (partner 2 µM)
Method in brief: as §1

[2] = compound: COc1cc(-c2nn([C@H]3CC[C@H](N4CCN(C(C)=O)CC4)CC3)c3ncnc(N)c23)ccc1NC(=O)c1cc2ccccc2n1C + Cc1nc(Nc2ncc(C(=O)Nc3c(C)cccc3Cl)s2)cc(N2CCN(CCO)CC2)n1 [Dasatinib] (partner 0.075 µM)
Method in brief: as §1

Cell Line | relative viability ([1]; first compound 0.0128 µM) | relative viability ([1]; first compound 0.04048 µM) | relative viability ([1]; first compound 0.128 µM) | relative viability ([1]; first compound 1.28 µM) | relative viability (Midostaurin + Trametinib; first compound 0.01 µM) | relative viability (Midostaurin + Trametinib; first compound 0.03162 µM) | relative viability (Midostaurin + Trametinib; first compound 0.1 µM) | relative viability (Midostaurin + Trametinib; first compound 0.3162 µM) | relative viability (Midostaurin + Pictilisib; first compound 0.01 µM) | relative viability (Midostaurin + Pictilisib; first compound 0.03162 µM) | relative viability (Midostaurin + Pictilisib; first compound 0.1 µM) | relative viability (Midostaurin + Pictilisib; first compound 0.3162 µM) | relative viability (Midostaurin + Decitabine; first compound 0.01 µM) | relative viability (Midostaurin + Decitabine; first compound 0.03162 µM) | relative viability (Midostaurin + Decitabine; first compound 0.1 µM) | relative viability (Midostaurin + Decitabine; first compound 0.3162 µM) | relative viability ([2]; first compound 0.0128 µM) | relative viability ([2]; first compound 0.04048 µM) | relative viability ([2]; first compound 0.128 µM) | relative viability ([2]; first compound 1.28 µM)
NCI-H1993 | 0.898 | 0.886 | 0.873 | 0.709 | 0.484 | 0.537 | 0.447 | 0.462 | 0.775 | 0.817 | 0.898 | 0.722 | 0.541 | 0.607 | 0.693 | 0.576 | 0.5 | 0.499 | 0.428 | 0.599
NCI-H322M | 1.36 | 1.09 | 1.18 | 1.12 | 0.483 | 0.567 | 0.536 | 0.568 | 0.52 | 0.493 | 0.5 | 0.594 | 0.638 | 0.673 | 0.651 | 0.715 | 0.262 | 0.256 | 0.234 | 0.253
NCI-H838 | 1.26 | 1.18 | 1.23 | 0.859 | 0.518 | 0.562 | 0.412 | 0.311 | 0.565 | 0.48 | 0.302 | 0.276 | 0.478 | 0.447 | 0.385 | 0.328 | 0.304 | 0.261 | 0.276 | 0.342
HARA | 1.14 | 1.24 | 1.14 | 1 | 0.994 | 0.663 | 0.887 | 0.393 | 0.469 | 0.416 | 0.295 | 0.333 | 0.584 | 0.528 | 0.539 | 0.591 | 0.259 | 0.21 | 0.269 | 0.236
NCI-H2087 | 1.03 | 0.908 | 1.02 | 1.2 | 0.178 | 0.221 | 0.187 | 0.273 | 0.851 | 0.769 | 0.979 | 1.18 | 0.276 | 0.323 | 0.357 | 0.194 | 1.11 |  | 0.733 | 0.857
NCI-H1437 | 1.09 | 1.1 | 1.05 | 1.02 | 0.615 | 0.502 | 0.588 | 0.518 | 0.58 | 0.567 | 0.567 | 0.599 | 0.579 | 0.607 | 0.561 | 0.53 | 0.428 | 0.437 | 0.439 | 0.302
NCI-H1792 | 0.611 | 0.499 | 0.609 | 0.624 | 0.508 | 0.37 | 0.383 | 0.338 | 0.323 | 0.25 | 0.257 | 0.244 | 0.555 | 0.515 | 0.529 | 0.431 | 0.505 | 0.731 | 0.749 | 0.645
ChaGo-K-1 | 0.958 | 1.05 | 0.881 | 0.986 | 0.949 | 0.963 | 0.806 | 0.915 | 0.688 | 1.24 | 0.712 | 1.1 | 0.488 | 0.55 | 0.533 | 0.54 | 0.693 | 0.62 | 0.568 | 0.621
COR-L23 | 0.972 | 1.29 | 0.9 | 0.982 | 0.599 | 0.555 | 0.573 | 0.497 | 0.743 | 0.734 | 0.752 | 0.603 | 0.381 | 0.441 | 0.448 | 0.434 | 0.503 | 0.529 | 0.462 | 0.665
COR-L 105 | 0.728 | 0.813 | 0.78 | 0.456 | 0.483 | 0.445 | 0.433 | 0.477 | 0.36 | 0.453 | 0.337 | 0.34 | 0.673 | 0.633 | 0.622 | 0.605 | 0.323 | 0.448 | 0.287 | 0.362
LK-2 | 1.04 | 0.861 | 0.621 | 0.685 | 0.767 | 0.713 | 0.855 | 0.618 | 0.592 | 0.555 | 0.586 | 0.599 | 0.262 | 0.272 | 0.405 | 0.299 | 0.312 | 0.264 | 0.326 | 0.417
201T | 1.27 | 1.3 | 1.22 | 1.03 | 0.714 | 0.707 | 0.755 | 0.795 | 0.707 | 0.571 | 0.659 | 0.722 | 0.878 | 0.91 | 0.83 | 0.867 | 0.617 | 0.511 | 0.537 | 0.448
NCI-H596 | 1.06 | 1.02 | 0.911 | 0.525 | 0.835 | 0.847 | 0.737 | 0.999 | 0.376 | 0.435 | 0.435 | 0.424 | 1.1 | 1.11 | 1.07 | 1.12 | 0.564 | 0.73 | 0.573 | 0.559
H3255 | 0.398 | 0.441 | 0.466 | 0.259 | 0.61 | 0.608 | 0.656 | 0.628 | 0.503 | 0.487 | 0.471 | 0.459 | 0.6 | 0.557 | 0.615 | 0.524 | 0.345 | 0.313 | 0.434 | 0.307
NCI-H647 | 1.29 | 1.18 | 1.06 | 0.669 | 0.491 | 0.593 | 0.552 | 0.372 | 0.387 | 0.532 | 0.311 | 0.294 | 0.405 | 0.433 | 0.346 | 0.374 | 0.155 | 0.227 | 0.164 | 0.203
